Where “and” joins values, the source holds several entries; their conditions need not be identical. Equal values may be shown once. Values belong to the molecule of their own block, whether it stands above or below them.
Columns and labels:
hA1AR [1] = target: T1, hA1AR (Homo sapiens, UniProt P30542); assay: MS binding competition association assay (marker ligand DPCPX); set-up: expressed in transfected cells; host or cells: CHO cells stably expressing hA1AR (membrane preparation); gift from Prof; S. Hill, University of Nottingham; settings: for shape of competition association curve: 6 nM DPCPX, 250 nM competing ligand
T1 sequence (P30542 1-326): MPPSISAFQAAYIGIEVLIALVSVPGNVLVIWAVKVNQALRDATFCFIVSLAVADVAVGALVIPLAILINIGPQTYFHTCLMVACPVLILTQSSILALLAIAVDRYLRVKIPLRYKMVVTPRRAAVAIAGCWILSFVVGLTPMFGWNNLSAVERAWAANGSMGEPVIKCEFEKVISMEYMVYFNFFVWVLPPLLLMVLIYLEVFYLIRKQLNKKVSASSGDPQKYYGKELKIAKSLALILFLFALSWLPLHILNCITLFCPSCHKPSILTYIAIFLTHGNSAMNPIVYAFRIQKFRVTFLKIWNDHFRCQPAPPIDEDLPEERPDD
Procedure: . […] Non-specific binding was determined as described under “MS binding displacement assays.”

hA1AR [2] = target: T1, hA1AR; assay: Radioligand binding competition association assay; set-up: expressed in transfected cells; host or cells: CHO cells stably expressing hA1AR (membrane preparation); gift from Prof; S. Hill, University of Nottingham; settings: newly acquired
Procedure: (§1) The reference radioligand binding data were published before by our lab or were acquired as described before.
(§2) For the validation of MS binding assays, radioligand binding data that was published previously by our group was used. In the case that no in-house radioligand binding data was available, the concerning assays were performed following previously established protocols.

hA1AR [3] = target: T1, hA1AR; assay: biochemical; settings: K i ± SEM, MS binding, 6 nM DPCPX marker, overall (one-state) value
Procedure: (§3) Ligand displacement experiments were performed using nine concentrations of competing ligand.

hA1AR [4] = target: T1, hA1AR; assay: biochemical; settings: K i ± SEM, Radioligand binding, overall (one-state) value, newly acquired
Procedure: as §1, §2

hA1AR [5] = target: T1, hA1AR; settings: saturation on CHO-hA1AR membranes, M/IS
Procedure: Dilutions were prepared with a HP D300 Digital Dispenser (Tecan Group, Männerdorf, Swiss) from DMSO stocks.

hA1AR [6] = target: T1, hA1AR; settings: saturation on hA1AR; cited from earlier work
hA1AR [7] = target: T1, hA1AR; set-up: expressed in transfected cells; host or cells: CHO cells stably expressing hA1AR (membrane preparation); gift from Prof; S. Hill, University of Nottingham; method as in PMID 23093571; settings: competition association, apparent value; cited from earlier work
hA2AAR [8] = target: T2, hA2AAR (Homo sapiens, UniProt P29274); assay: Radioligand binding displacement assay; settings: newly acquired, read-out: K i ± SEM, Radioligand binding
T2 construct: expressed in transfected cells; host or cells: HEK293 cells stably expressing hA2AAR (membrane preparation); gift from Dr. J. Wang, Biogen/IDEC
T2 sequence (P29274 whole entry): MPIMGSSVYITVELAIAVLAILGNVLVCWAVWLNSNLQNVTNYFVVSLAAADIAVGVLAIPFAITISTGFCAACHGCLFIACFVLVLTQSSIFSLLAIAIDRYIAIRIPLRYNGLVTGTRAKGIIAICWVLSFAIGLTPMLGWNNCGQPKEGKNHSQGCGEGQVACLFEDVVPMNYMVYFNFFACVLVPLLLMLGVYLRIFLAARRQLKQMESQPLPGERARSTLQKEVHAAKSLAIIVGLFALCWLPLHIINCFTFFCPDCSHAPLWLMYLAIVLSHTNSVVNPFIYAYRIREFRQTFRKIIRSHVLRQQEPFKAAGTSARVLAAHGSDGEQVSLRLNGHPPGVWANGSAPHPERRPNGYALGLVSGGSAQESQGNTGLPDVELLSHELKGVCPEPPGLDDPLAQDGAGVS
Procedure: as §1, §2

hA2AAR [9] = target: T2, hA2AAR; assay: Radioligand binding competition association assay; settings: newly acquired
Procedure: as §1, §2

hA2AAR [10] = target: T2, hA2AAR; assay: MS binding displacement assay (marker ligand ZM-241,385); settings: 3 nM ZM-241,385 marker, read-out: K i ± SEM, MS binding
Procedure: as §3

hA2AAR [11] = target: T2, hA2AAR; assay: MS binding competition association assay (marker ligand ZM-241,385)
[12] = competition association with 3 nM ZM-241,385, with internal standard
[13] = competition association with 3 nM ZM-241,385, without internal standard

shape of competition association curve (hA1AR [1]; hA1AR): typical for fast-dissociating ligands
koff (hA1AR [1]; read-out: k off ± SEM, MS binding (M/IS) (converted)): 0.0233 s⁻¹
koff (hA1AR [1]; read-out: k off ± SEM, MS binding (marker) (converted)): 0.02 s⁻¹
kon (hA1AR [1]; read-out: k on ± SEM, MS binding (M/IS) (converted)): 833000 M⁻¹ s⁻¹
kon (hA1AR [1]; read-out: k on ± SEM, MS binding (marker) (converted)): 500000 M⁻¹ s⁻¹
koff (hA1AR [2]; read-out: k off ± SEM, Radioligand binding (converted)): 0.0183 s⁻¹
kon (hA1AR [2]; read-out: k on ± SEM, Radioligand binding (converted)): 1e+06 M⁻¹ s⁻¹
Ki (hA1AR [3]): 43 ± 11 nM
Ki (hA1AR [4]): 31 ± 1 nM
SMILES: Cn1c(=O)c2[nH]c(C3CCCC3)nc2n(C)c1=O [8-CPT, 8-Cyclopentyltheophylline]

B max, MS binding (hA1AR [5]): 17.3 ± 0.3 pmol/mg protein
SMILES: CCCn1c(=O)c2[nH]c(C3CCCC3)nc2n(CCC)c1=O [DPCPX, 1,3-dipropyl-8-cyclopentyl-xanthine]
B max, Radioligand binding (hA1AR [6]): 14 ± 1 pmol/mg protein and 14 ± 1 [29] pmol/mg protein

SMILES: CCCn1c(=O)c2[nH]c(C3CCCC3)nc2n(CCCOC(=O)c2ccc(S(=O)(=O)F)cc2)c1=O [FSCPX]
shape of competition association curve (hA1AR [1]; hA1AR): typical for slowly dissociating ligands
displacement of the marker ligand DPCPX (hA1AR [1]; hA1AR, 250 nM FSCPX, after 120 min): completely
k on ± SEM, MS binding (M/IS) (hA1AR [1]; hA1AR, competition association with 6 nM DPCPX, with internal standard, apparent value for covalently binding FSCPX): 0.7 ± 0.2 × 10^6 M^−1 min^−1
k on ± SEM, MS binding (marker) (hA1AR [1]; hA1AR, competition association with 6 nM DPCPX, without internal standard, apparent value for FSCPX): 0.7 ± 0.2 × 10^6 M^−1 min^−1
k on ± SEM, Radioligand binding (hA1AR [7]): 3.7 ± 1.0 × 10^6 [29] M^−1 min^−1

SMILES: C#CCn1c(=O)c2c(nc(C=Cc3cccc(OC)c3)n2C)n(CCCO)c1=O [MSX-2, 3-(3-Hydroxypropyl)-7-methyl-1-propargyl-8-(m-methoxystryryl)xanthine]
Ki (hA2AAR [8]): 5.7 ± 0.1 nM
k off ± SEM, Radioligand binding (hA2AAR [9]): 0.000433 ± 6.7e-05 s⁻¹
k on ± SEM, Radioligand binding (hA2AAR [9]): 2.4 ± 0.2 × 10^6 M^−1 min^-1
Ki (hA2AAR [10]): 9 ± 0.3 nM
shape of competition association curve (hA2AAR [11]; 3 nM ZM-241,385, 90 nM MSX-2 or 15 nM LUF6632): typical for fast-dissociating ligands
k off ± SEM, MS binding (M/IS) (hA2AAR [11]; [12]): 0.00045 ± 8.3e-05 s⁻¹
k on ± SEM, MS binding (M/IS) (hA2AAR [11]; [12]): 5.4 ± 0.6 × 10^6 M^−1 min^-1
k off ± SEM, MS binding (marker) (hA2AAR [11]; [13]): 0.00105 ± 0.000367 s⁻¹
k on ± SEM, MS binding (marker) (hA2AAR [11]; [13]): 9.3 ± 1.3 × 10^6 M^−1 min^-1

Reference: article PMC4648803 (Purinergic Signalling, 2015)
